The values that follow come from publication PMC3706558 (Biochemistry, 2013).

The Km is the substrate concentration at which the rate is half of its maximum. What is called Ki is a measure of affinity in units of concentration, obtained from inhibition or displacement.

Series [1] concerns NC(=O)c1ccc[n+]([C@@H]2O[C@H](COP(=O)(O)OP(=O)(O)OC[C@H]3O[C@@H](n4cnc5c(N)ncnc54)[C@H](OP(=O)(O)O)[C@@H]3O)[C@@H](O)[C@H]2O)c1. The series is described as follows: purified protein. The settings on record: pH 7.5.
The target in series [2] is T1, Mtb ICDH-1 (Mycobacterium tuberculosis, UniProt P9WKL1). The series is described as follows: NADPH formation at […] nm, dead-end inhibition. Type of series: biochemical.
T1 sequence (P9WKL1 whole entry): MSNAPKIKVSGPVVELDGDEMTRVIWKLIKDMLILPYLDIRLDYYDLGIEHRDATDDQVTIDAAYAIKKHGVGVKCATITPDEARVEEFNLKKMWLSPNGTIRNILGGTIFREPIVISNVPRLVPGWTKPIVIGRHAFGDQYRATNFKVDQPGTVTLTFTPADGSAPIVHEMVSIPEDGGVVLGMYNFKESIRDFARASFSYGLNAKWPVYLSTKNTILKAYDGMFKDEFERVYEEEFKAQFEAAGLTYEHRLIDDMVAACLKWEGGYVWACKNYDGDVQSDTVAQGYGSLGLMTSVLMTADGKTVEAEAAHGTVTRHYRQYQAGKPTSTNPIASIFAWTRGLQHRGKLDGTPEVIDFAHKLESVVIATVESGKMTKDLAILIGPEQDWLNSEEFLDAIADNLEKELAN
The target of series [3] is T1, Mtb ICDH-1. The series is described as follows: biochemical.

Take “Mtb ICDH-1 (Mycobacterium tuberculosis H37Rv)”: the Michaelis constant (Km) in series [1] was found to be 15 ± 3 µM. Regarding `O=C(O)C[C@H](O)C(=O)O` [malate], affinity on Mtb ICDH-1 [2] was put at a Ki of 80 ± 15 mM. With `O=C(O)CCC(=O)C(=O)O` [αKG], on Mtb ICDH-1 [3], affinity was put at a Ki of 22 ± 6 mM. On the same count and under the same terms, then `NC(=O)C1=CN([C@@H]2O[C@H](COP(=O)(O)OP(=O)(O)OC[C@H]3O[C@@H](n4cnc5c(N)ncnc54)[C@H](OP(=O)(O)O)[C@@H]3O)[C@@H](O)[C@H]2O)C=CC1` [NADPH], with 0.006 ± 0.002 mM.
